For data set [1], the system named is Noradrenalin- Aufnahme ins Rattenherz. As to the kind of experiment: Inhibition of noradrenaline uptake into rat heart (method of Maitre, Staehelin and Bein). The data set is classed as in vivo, Ratte. As to conditions: po, Formel I tested as Hydrochlorid, read-out: ED50 Hemmung der Noradrenalin- Aufnahme ins Rattenherz. As for the experimental part: Neurobiochemisch zeigt das Hydrochlorid der Verbindung der Formel I eine starke Hemmung der Noradrenalin- Aufnahme ins Rattenherz gemäss der Methode von L. Maitre, M. Staehelin und H. Bein, Biochem. Pharmacol. 20, 2169 (1971) mit einer ED50 von etwa 0,3 mg/kg p.o., während die ED50 des entsprechenden Racemats bei etwa 1,5 mg/kg p.o. liegt, wie auch eine starke Hemmung des Noradrenalindepletierenden Effektes von H 77/77 (3-Hydroxy-4,a-dimethyl- phenäthylamin) im Rattenhirn als indirekte Anzeige der Noradrenalin-Aufnahme-Hemmung [A. Carlsson, H. Corrodi, K. Fuxe und T. Hoefkelt, Europ. J. Pharmacol. 5, 367 (1969)] mit einer ED50 von etwa 2 mg/kg p.o., gegenüber einer ED50 von etwa 10 mg/kg p.o. des entsprechenden Racemats. Die endogenen Konzentrationen von Noradrenalin und von Dopamin im Rattenhirn, gemessen nach P. Waldmeier, de Herdt und L. Maitre [Chir. Chem. 20, 81, (1974)] werden weder vom Hydrochlorid der Verbindung der Formel I in Dosen bis 100 mg/kg bzw. bis 30 mg/kg p.o., noch vom entsprechenden Racemat in Dosen bis 10 mg/kg bzw. bis 100 mg/kg beeinflusst.

The test system of data set [2] is endogenen Konzentrationen von Noradrenalin im Rattenhirn. As to the kind of experiment: Endogenous noradrenaline concentration in rat brain. As to conditions: no influence up to this dose, p.o. for Formel I (Hydrochlorid). The data set is classed as in vivo, Ratte.
Data set [3] deals with endogenen Konzentrationen von Dopamin im Rattenhirn. As to the kind of experiment: Endogenous dopamine concentration in rat brain. It counts as in vivo, Ratte. As to conditions: no influence up to this dose, p.o. for Formel I (Hydrochlorid).
Data set [4] deals with durch 2 mg/kg sc. Reserpin induzierte Ptosis. As to the kind of experiment: Antagonism of reserpine-induced ptosis. The data set is classed as in vivo, männlichen Ratten. On the procedure: (§1) Das S-(+)-o-[Methylamino)methyl]-9,10-äthanoan- thracen-9(10H)-äthanol und seine Säureadditionssalze besitzen wertvolle pharmakologische Eigenschaften. Vor allem zeigen sie sehr starke Wirkungen in Tests, die für Antidepressiva charakteristisch sind. Eine deutliche Antagonisierung der durch 2 mg/kg sc. Reserpin induzierten Hypothermie an männlichen Mäusen [Askew, Life Sci. 10, 725 (1963),und Benz und Waser, Dissertation 1971, Pharmakolog. […] Die durch 2 mg/kg sc. Reserpin induzierte Ptosis an männlichen Ratten [Rubin et al, J. Pharmacol. Exp. Therap.

Data set [5] concerns Noradrenalindepletierenden Effektes von H 77/77 (3-Hydroxy-4,a-dimethyl- phenäthylamin) im Rattenhirn. As to the kind of experiment: Inhibition of the noradrenaline-depleting effect of H 77/77 in rat brain (indirect measure of noradrenaline uptake inhibition). It counts as in vivo, Ratte. As to conditions: po, Formel I tested as Hydrochlorid, read-out: ED50 Hemmung des Noradrenalindepletierenden Effektes von H 77/77 im Rattenhirn.

The test system of data set [6] is durch G 29 505 [2-(4-Allyl-2-methoxyphenoxy)-N,N-diäthyl-acetamid] bewirkten Narkose der Maus. As to the kind of experiment: Potentiation of G 29 505-induced narcosis. The data set is classed as in vivo. As to conditions: mouse; intraperitoneal administration; Hydrochlorid compared with Racemat. From the text: (§2) Therap. 125, 28-34 (1959)], während bei der Antagonisierung der durch Tetrabenazin induzierten Katalepsie der Ratte nach oraler Verabreichung, und bei der Potenzierung der durch G 29 505 [2-(4-Allyl-2-methoxyphenoxy)-N,N-diäthyl-acetamid] bewirkten Narkose der Maus [W. Theobald und R. Domenjoz, Arzneimittelforsch.

Data set [7] concerns durch Fuss-Schock induzierten Kampfreaktion der Maus. In words: Foot-shock induced fighting reaction. The data set is classed as in vivo. As to conditions: mouse; equal doses of Formel I (tested as Hydrochlorid) and Racemat.
Source text: as §2

In data set [8] the test system is durch Tetrabenazin induzierten Katalepsie der Ratte. As to the kind of experiment: Antagonism of tetrabenazine-induced catalepsy. As to conditions: rat; oral administration; Hydrochlorid compared with Racemat. It counts as in vivo.
Source text: as §2

For data set [9], the system named is durch 2 mg/kg sc. Reserpin induzierten Hypothermie. In words: Antagonism of reserpine-induced hypothermia. The data set is classed as in vivo, männlichen Mäusen. As to conditions: male mice, Hydrochlorid compared with the corresponding Racemat. On the procedure:
as §1

For data set [10], the system named is isolierten rechten Vorhof. Details: species or system Meerschweinchen.
In data set [11] the test system is exploratorischen Aktivität der Maus. In words: Exploratory activity. The data set is classed as in vivo. As to conditions: mouse; equal doses of Formel I (tested as Hydrochlorid) and Racemat.
A further data set can be described thus: Acute toxicity. The data set is classed as in vivo.
The next data set has as its system Histamin-Toxizität. As to the kind of experiment: Antagonism of histamine toxicity. As to conditions: guinea pig; equal doses of Formel I (tested as Hydrochlorid) and Racemat. It counts as in vivo, Meerschweinchen.
Source text: as §2

As for `CNCC(O)CC12CCC(c3ccccc31)c1ccccc12` (racemic) [Racemat, a-[(Methylamino)methyl]-9,10-äthanoanthracen-9(10H)-äthanol, reference compound], the ED50 is about 1.5 mg/kg in data set [1] and about 10 mg/kg in data set [5]. Besides, the “Dosen, bis zu denen die endogene Konzentration von Noradrenalin im Rattenhirn nicht beeinflusst wird” value in [2] is at most 10 mg/kg. In addition, the “Dosen, bis zu denen die endogene Konzentration von Dopamin im Rattenhirn nicht beeinflusst wird” value in [3] is listed as at most 100 mg/kg. The “Dosierung, die die Reserpin induzierte Ptosis völlig aufhebt” value in data set [4] (male rats, relative to 0,3 mg/kg p.o. of the Hydrochlorid of Formel I) is “erheblich höheren Dosierung”.

In the case of `CNC[C@@H](O)CC12CCC(c3ccccc31)c1ccccc12` [Verbindung der Formel I, S-(+)-a-[(Methylamino)methyl]-9,10-äthanoanthracen-9(10H)-äthanol], in [6], the “Potenzierung der durch G 29 505 bewirkten Narkose, Vergleich mit Racemat” value is “in ungefähr der halben Dosierung gleich wirksam”. Further, the ED50 in data set [1] is about 0.3 mg/kg; in [5], about 2 mg/kg. The “durch Fuss-Schock induzierte Kampfreaktion, Vergleich mit Racemat” value in [7] is “ungefähr dieselben Wirkungen”. Besides, in [8], the “Antagonisierung der durch Tetrabenazin induzierten Katalepsie, Vergleich mit Racemat” value was “in ungefähr der halben Dosierung gleich wirksam”. Also, the “Dosen, bis zu denen die endogene Konzentration von Noradrenalin im Rattenhirn nicht beeinflusst wird” value in [2] is listed as at most 100 mg/kg. Further, the “Antagonisierung der Reserpin induzierten Hypothermie, Vergleich mit Racemat” value in data set [9] is reported as “stärker als die Wirkung von mehrfachen Dosen des entsprechenden Racemats”. Moreover, the “negativ chronotrope Wirkung, Vergleich mit Racemat” value in [10] is “schwächer”. Further, the “Dosen, bis zu denen die endogene Konzentration von Dopamin im Rattenhirn nicht beeinflusst wird” value in [3] is at most 30 mg/kg. In addition, the “Reserpin induzierte Ptosis” value in data set [4] (male rats, 0,3 mg/kg p.o. of the Hydrochlorid) is “aufgehoben”; in [4] (male rats, O,1 mg/kg p.o. of the Hydrochlorid), “deutlich vermindert”. Also, the “exploratorische Aktivität, Vergleich mit Racemat” value in data set [11] is recorded as “ungefähr dieselben Wirkungen”. Further, the “akute Toxizität, Vergleich mit Racemat” value in “Acute toxicity” (intravenous administration) and in the data set “Acute toxicity” (oral administration) was “ungefähr gleich” throughout. For the same molecule, the “Antagonisierung der Histamin-Toxizität, Vergleich mit Racemat” value in the data set on Histamin-Toxizität is on record as “ungefähr dieselben Wirkungen”.

These data come from patent EP0014434A1, “Right-turning basic derivative of 9,10-ethanoanthracene, process for its preparation and pharmaceutical preparations containing it” (priority 1979, dated 1980).
